Measurements reported in US20250034218A1, “ANTIMICROBIAL PEPTIDES” (BiomEdit, LLC, priority 2021, published 2025).
Ends that are not written are not given here.

Key:
E. coli DH5 alpha = format: cell-based, Escherichia coli
Method: A MIC assay was set up using heat treated CAP18 variants in a 96-well plate. […] Appropriate controls (media only control, no CAP18 control) were included on the same plate. The plates were incubated at 37° C. for 24-48 hours and MIC for each variant was recorded. The experiment was repeated 3 times.

E. coli DH5alpha [1] = format: cell-based, Escherichia coli; settings: peptide treated with proteinase K at 37° C. before MIC assay
Method: CAP18 peptide variants single mutants were evaluated for resistance to proteinase K. Peptides were subjected to proteinase K treatment and then assessed for bacterial cell killing (against E. coli) in a MIC assay.
CAP18 variants were synthesized from GenScript, Inc, and solubilized in sterile purified water to a final concentration of 4 mg/ml. E. coli DH5alpha was grown overnight in 10 ml LB broth. Ten microliters of each CAP18 variant was treated with 2 μl of proteinase K (Qjagen, >600 mAU/ml) and incubated at 37° C. for 2 or 5 minutes in a PCR machine. The samples were then incubated at 98° C. for 5 minutes to inactivate proteinase K. An MIC assay was set up using proteinase K-treated CAP18 variants in a 96-well plate. Briefly, the peptides were serially diluted 2-fold in LB broth to achieve a final volume of 50 μl in each well and 50 μl of the E. coli DH5alpha culture adjusted to a concentration of 2×10^6 cells/ml was added into each well. Appropriate controls (media only control, no CAP18 control) were included on the same plate. The plates were incubated at 37° C. for 24-48 hours and MIC for each variant was recorded. The experiment was repeated 3 times.

E. coli DH5alpha [2] = format: cell-based, Escherichia coli; settings: peptide treated with trypsin at 37° C. before MIC assay
Method: CAP18 peptide variants single mutants were evaluated for resistance to trypsin. Peptides were subjected to trypsin protease treatment and then assessed for bacterial cell killing (against E. coli) in a MIC assay.
CAP18 variants were synthesized from GenScript, Inc, and solubilized in sterile purified water to a final concentration of 4 mg/ml. E. coli DH5alpha was grown overnight in 10 ml LB broth. Ten microliters of each CAP18 variant was treated with 2 μl (or 2 μl of the 10-fold diluted trypsin) of trypsin (0.25%, Sigma Aldrich) and incubated at 37° C. for 2 or 5 minutes in a PCR machine. The samples were then incubated at 98° C. for 5 minutes to inactivate trypsin. An MIC assay was set up using trypsin-treated CAP18 variants in a 96-well plate. Briefly, the peptides were serially diluted 2-fold in LB broth to achieve a final volume of 50 μl in each well and 50 μl of the E. coli DH5alpha culture adjusted to a concentration of 2×10^6 cells/ml was added into each well. Appropriate controls (media only control, no CAP18 control) were included on the same plate. The plates were incubated at 37° C. for 24-48 hours and MIC for each variant was recorded. The experiment was repeated 3 times.

Giardia = Giardia plate assay, % of control (Table 3); format: cell-based; settings: Conc 10 (uM or %); plate G7
Text: Data comparing AMP01 (wild type CAP 18 peptide (SEQ ID NO: 1) with various other agents is tabulated in Table 3. NTZ corresponds to nitazoxanide. ALB corresponds to albendazole.

[3] = system: Escherichia coli Dh5alpha; assay: MIC with diluted or undiluted trypsin and without trypsin (variant CAP18 peptides); format: cell-based; settings: compared to WT CAP18
Method: Testing of CAP18 variants for protease resistance using Escherichia coli Dh5alpha as an indicator organism. CAP18 variants were synthesized from GenScript, Inc, and solubilized in sterile purified water to a final concentration of 4 mg/ml. E. coli DH5alpha was grown overnight in 10 ml LB broth. Ten microliters of each CAP18 variant was treated with 2 μl (or 2 μl of the 10-fold diluted trypsin) of trypsin (0.25%, Sigma Aldrich) and incubated at 37° C. for 2 or 5 minutes in a PCR machine. An MIC assay was set up using trypsin-treated CAP18 variants in a 96-well plate. Briefly, the peptides were serially diluted 2-fold in LB broth to achieve a final volume of 50 μl in each well and 50 μl of the E. coli DH5alpha culture adjusted to a concentration of 2×10^6 cells/ml was added into each well. Appropriate controls (media only control, no CAP18 control) were included on the same plate. The plates were incubated at 37° C. for 24-48 hours and MIC for each variant was recorded. The experiment was repeated 3 times.
Numerous variant CAP18 peptides were tested to determine and assess their resistance to protease. In each assessment, the variant CAP18 peptides were compared to wild type CAP18 rabbit sequence ([…] (SEQ ID NO:1)). Peptides were evaluated using trypsin diluted 1:10, 1:2 and undiluted. Experiments were conducted in duplicate. In each instance minimal inhibitory concentration (MIC) of the peptide was determined in the presence of the applicable diluted or undiluted trypsin and in the absence of trypsin. Experiments l and 2 are duplicate assessments with 1:10 diluted trypsin. Experiments 3 and 4 are duplicate assessments with 1:2 diluted trypsin. Experiments 5 and 6 are duplicate assessments with undiluted trypsin.

[4] = system: Bovine Respiratory Disease (BRD); settings: positive control treatment; reduces from approximately 30%; cited from earlier work

## GLRKKLRKFRNKIKEKLKKIGQKIQGLLPKLAPRTDY [C8]
E. coli DH5 alpha
  Thermotolerance at 90 for 5 minutes (MIC, ug/ml): 100 µg/mL
E. coli DH5alpha [1]
  Resistance to proteinase K (MIC, ug/ml): 400 µg/mL
E. coli DH5alpha [2]
  Resistance to trypsin (MIC, ug/ml): 50 µg/mL

## GLKKRLRKFRNKIKEKLKKIGQKIQGLLPKLAPRTDY [C7]
E. coli DH5 alpha
  Thermotolerance at 90 for 5 minutes (MIC, ug/ml): 200 µg/mL
E. coli DH5alpha [1]
  Resistance to proteinase K (MIC, ug/ml): >400 µg/mL
E. coli DH5alpha [2]
  Resistance to trypsin (MIC, ug/ml): 50 µg/mL

## GLRKRLRKFRNKIKEKLKKIGQKIQGLLPKPAPRTDY [C5]
E. coli DH5 alpha
  Thermotolerance at 90 for 5 minutes (MIC, ug/ml): >400 µg/mL
E. coli DH5alpha [1]
  Resistance to proteinase K (MIC, ug/ml): >400 µg/mL
E. coli DH5alpha [2]
  Resistance to trypsin (MIC, ug/ml): 400 µg/mL

## GLRKRLRKIRNKIKEKLKKIGQKIQGLLPKLAPRTDY [C12]
E. coli DH5 alpha
  Thermotolerance at 90 for 5 minutes (MIC, ug/ml): 100 µg/mL
E. coli DH5alpha [1]
  Resistance to proteinase K (MIC, ug/ml): 200 µg/mL
E. coli DH5alpha [2]
  Resistance to trypsin (MIC, ug/ml): 100 µg/mL

## CCCSc1ccc2nc(NC(=O)OC)[nH]c2c1 [ALB, albendazole]
Giardia
  % of control MV: 1.5%

## GLRKRLRKFRNKIKPKLKKIGQKIQGLLPKLAPRTDY [C4]
E. coli DH5 alpha
  Thermotolerance at 90 for 5 minutes (MIC, ug/ml): 400 µg/mL
E. coli DH5alpha [1]
  Resistance to proteinase K (MIC, ug/ml): >400 µg/mL
E. coli DH5alpha [2]
  Resistance to trypsin (MIC, ug/ml): >400 µg/mL

## GLRKRLRKFRNKIKEKLKKIGQKIQGLLPKIAPRTDY [C16]
E. coli DH5 alpha
  Thermotolerance at 90 for 5 minutes (MIC, ug/ml): 100 µg/mL
E. coli DH5alpha [1]
  Resistance to proteinase K (MIC, ug/ml): >400 µg/mL
E. coli DH5alpha [2]
  Resistance to trypsin (MIC, ug/ml): 50 µg/mL

## GLRKRLRKFRPKIKEKLKKIGQKIQGLLPKLAPRTDY [C3]
E. coli DH5 alpha
  Thermotolerance at 90 for 5 minutes (MIC, ug/ml): >400 µg/mL
E. coli DH5alpha [1]
  Resistance to proteinase K (MIC, ug/ml): >400 µg/mL
E. coli DH5alpha [2]
  Resistance to trypsin (MIC, ug/ml): >400 µg/mL

## CWTKSIPPKPCGLRKRLKKIKNKIKEKLKKIGQKIQGLLPKLAPRTDY (Description of sequence: Mutation Sequence) [SEQ ID NO: 18]
[3]
  activity (MIC) and protease resistance: effective at the lowest concentration (lowest MIC) and was the most protease resistant in all experiments

## GLRKRLRKFRNKIKEKLKKIGQKIQGLLPKLAPRPDY [C6]
E. coli DH5 alpha
  Thermotolerance at 90 for 5 minutes (MIC, ug/ml): 1200 µg/mL
E. coli DH5alpha [1]
  Resistance to proteinase K (MIC, ug/ml): >400 µg/mL
E. coli DH5alpha [2]
  Resistance to trypsin (MIC, ug/ml): >400 µg/mL

## CWTKSIPPKPCGLRKILKKIKNKIKEKLKKIGQKIQGLLPKLAPRTDY (Description of sequence: Mutation Sequence) [SEQ ID NO: 19]
[3]
  activity (MIC) and protease resistance: better activity (lower MIC) and protease resistance

## CWTKSIPPKPCGLRKKLKKIRNKIKEKLKKIGQKIQGLLPKLAPRTDY (Description of sequence: Mutation Sequence) [SEQ ID NO: 20]
[3]
  activity (MIC) and protease resistance: better activity (lower MIC) and protease resistance

## GLRKRLKKFRNKIKEKLKKIGQKIQGLLPKLAPRTDY [C9]
E. coli DH5 alpha
  Thermotolerance at 90 for 5 minutes (MIC, ug/ml): 50 µg/mL
E. coli DH5alpha [1]
  Resistance to proteinase K (MIC, ug/ml): 400 µg/mL
E. coli DH5alpha [2]
  Resistance to trypsin (MIC, ug/ml): 400 µg/mL

## GLRKRLRKFRNKIKEKLKKIGQKIQGLLPKLAPKTDY [C11]
E. coli DH5 alpha
  Thermotolerance at 90 for 5 minutes (MIC, ug/ml): 200 µg/mL
E. coli DH5alpha [1]
  Resistance to proteinase K (MIC, ug/ml): >400 µg/mL
E. coli DH5alpha [2]
  Resistance to trypsin (MIC, ug/ml): 200 µg/mL

## GLRKRLRKFRNKIKEKIKKIGQKIQGLLPKLAPRTDY [C15]
E. coli DH5 alpha
  Thermotolerance at 90 for 5 minutes (MIC, ug/ml): 200 µg/mL
E. coli DH5alpha [1]
  Resistance to proteinase K (MIC, ug/ml): >400 µg/mL
E. coli DH5alpha [2]
  Resistance to trypsin (MIC, ug/ml): 50 µg/mL

## GIRKRLRKFRNKIKEKLKKIGQKIQGLLPKLAPRTDY [C13]
E. coli DH5 alpha
  Thermotolerance at 90 for 5 minutes (MIC, ug/ml): 200 µg/mL
E. coli DH5alpha [1]
  Resistance to proteinase K (MIC, ug/ml): >400 µg/mL
E. coli DH5alpha [2]
  Resistance to trypsin (MIC, ug/ml): 100 µg/mL

## GLRKRLRPFRNKIKEKLKKIGQKIQGLLPKLAPRTDY [C2]
E. coli DH5 alpha
  Thermotolerance at 90 for 5 minutes (MIC, ug/ml): 100 µg/mL
E. coli DH5alpha [1]
  Resistance to proteinase K (MIC, ug/ml): >400 µg/mL
E. coli DH5alpha [2]
  Resistance to trypsin (MIC, ug/ml): >400 µg/mL

## GLRPRLRKFRNKIKEKLKKIGQKIQGLLPKLAPRTDY [C1]
E. coli DH5 alpha
  Thermotolerance at 90 for 5 minutes (MIC, ug/ml): 200 µg/mL
E. coli DH5alpha [1]
  Resistance to proteinase K (MIC, ug/ml): >400 µg/mL
E. coli DH5alpha [2]
  Resistance to trypsin (MIC, ug/ml): 100 µg/mL

## CC(=O)Oc1ccccc1C(=O)Nc1ncc([N+](=O)[O-])s1 [NTZ, nitazoxanide]
Giardia
  % of control MV: 0.6%

## GLRKRLRKFKNKIKEKLKKIGQKIQGLLPKLAPRTDY [C10]
E. coli DH5 alpha
  Thermotolerance at 90 for 5 minutes (MIC, ug/ml): 100 µg/mL
E. coli DH5alpha [1]
  Resistance to proteinase K (MIC, ug/ml): 400 µg/mL
E. coli DH5alpha [2]
  Resistance to trypsin (MIC, ug/ml): 50 µg/mL

## CWTKSIPPKPCGLRKRLRKIKNKIKEKLKKIGQKIQGLLPKLAPKTDY (Description of sequence: Mutation Sequence) [SEQ ID NO: 21]
[3]
  activity (MIC) and protease resistance: better activity (lower MIC) and protease resistance

## CWTKSIPPKPCGCRKPLRKIRNKIKEKLKKIGQKIQGLLPKLAPRTDY (Description of sequence: Mutation Sequence) [SEQ ID NO: 22]
[3]
  activity (MIC) and protease resistance: better activity (lower MIC) and protease resistance

## CCCNC[C@]1(O)[C@H](C)O[C@@H](O[C@H]2[C@H](C)[C@@H](O[C@@H]3O[C@H](C)C[C@H](N(C)C)[C@H]3O)[C@](C)(O)C[C@@H](C)CN[C@H](C)[C@@H](O)[C@](C)(O)[C@@H](CC)OC(=O)[C@@H]2C)C[C@@]1(C)OC [tulathromycin]
[4]
  lung consolidation: ~5%

## GLRKRIRKFRNKIKEKLKKIGQKIQGLLPKLAPRTDY [C14]
E. coli DH5 alpha
  Thermotolerance at 90 for 5 minutes (MIC, ug/ml): 100 µg/mL
E. coli DH5alpha [1]
  Resistance to proteinase K (MIC, ug/ml): >400 µg/mL
E. coli DH5alpha [2]
  Resistance to trypsin (MIC, ug/ml): 50 µg/mL
